According to patent US12729177B2, “Small molecules promoting sympathetic nerve regeneration” (OREGON HEALTH & SCIENCE UNIVERSITY, priority 2020, dated 2026):

Key:
PTPα catalytic activity = conditions: read-out: IC50 against PTPα catalytic activity in vitro; cited from earlier work
sympathetic neurons = assay: Sympathetic outgrowth assay: dissociated sympathetic neurons on laminin or laminin and CSPGs, live cell imaging; conditions: 10 ng/mL NGF, imaging over 30 hr
cardiac vasculature = assay: Vascular immunohistochemistry (α-SMA, CD31) after MI; type: in vivo, mouse; conditions: 14 days after MI; infarct, peri-infarct, remote myocardium
[1] = molecular target: T1, PTPσ D1D2 catalytic domain (Homo sapiens, UniProt Q13332); conditions: for D1 phosphatase activity (pNPP): 1 μM HJ-02, orthovanadate 10 mM
T1 sequence (Q13332 1304-1948 limits assumed): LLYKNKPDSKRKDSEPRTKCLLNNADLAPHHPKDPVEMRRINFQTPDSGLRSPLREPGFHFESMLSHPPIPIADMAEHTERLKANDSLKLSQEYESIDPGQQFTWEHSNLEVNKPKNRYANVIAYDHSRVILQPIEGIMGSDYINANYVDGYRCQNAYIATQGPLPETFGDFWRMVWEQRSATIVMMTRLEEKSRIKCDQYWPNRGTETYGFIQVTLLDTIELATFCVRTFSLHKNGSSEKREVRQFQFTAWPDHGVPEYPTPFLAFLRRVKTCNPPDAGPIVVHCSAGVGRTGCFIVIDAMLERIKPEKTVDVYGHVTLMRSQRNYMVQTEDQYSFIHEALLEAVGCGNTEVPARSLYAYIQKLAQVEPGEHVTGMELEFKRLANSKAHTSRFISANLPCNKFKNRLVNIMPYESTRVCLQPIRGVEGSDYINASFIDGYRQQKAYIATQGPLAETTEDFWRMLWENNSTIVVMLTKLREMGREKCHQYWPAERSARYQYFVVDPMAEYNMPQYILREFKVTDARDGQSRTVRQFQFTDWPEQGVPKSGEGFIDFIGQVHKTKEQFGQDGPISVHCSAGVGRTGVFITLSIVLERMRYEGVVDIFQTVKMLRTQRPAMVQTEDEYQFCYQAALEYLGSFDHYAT

infarct size = assay: Infarct size after myocardial ischemia-reperfusion; type: in vivo, mouse; conditions: MI mice, treatment beginning three days after reperfusion (days 3-10); infarct as percentage of LV
[2] = tested on: PTPσ inhibition of TrkB signaling (ERK1/2 phosphorylation); assay: TrkB stimulated ERK phosphorylation in TrkB-HEK-293t cells co-expressing full-length PTPσ; conditions: BDNF-induced
sympathetic axons = assay: Compartmentalized cultures: microfluidic chambers, axonal compartment coated with CSPGs; conditions: added to the axonal (distal) compartment for 3 hours
[3] = tested on: panel of other protein phosphatases; assay: Screen against a panel of other protein phosphatases; type: biochemical
[4] = tested on: cardiac output and ejection fraction; assay: Echocardiography of cardiac function after MI; type: in vivo, mouse; conditions: MI mice, response to isoproterenol
[5] = tested on: sympathetic nerve density in the infarct; assay: Sympathetic reinnervation of the infarct after myocardial ischemia-reperfusion (TH+ fiber density); type: in vivo, mouse; conditions: mice, s.c. daily days 3-10 after MI; HJ-01, HJ-02 10 mg/kg, ISP 10 μmol; day 14
ISO-stimulated PVCs = assay: Isoproterenol-induced arrhythmias after MI, ECG telemetry; type: in vivo, mouse; conditions: MI mice, s.c. daily days 3-10; HJ-01, HJ-02 10 mg/kg, ISP 10 μmol; 10 μg isoproterenol, 14 days after MI
TrkA-PTPσ interaction = TrkA-PTPσ interaction (Homo sapiens, UniProt Q13332); assay: Immunoprecipitation assay: TrkA-RFP pulldown of PTPσ in transfected HEK-293t cells; conditions: 1 uM; HEK-293 cells treated with CSPGs and NGF; normalized to vehicle
Sequence of TrkA-PTPσ interaction (Q13332 30-1948): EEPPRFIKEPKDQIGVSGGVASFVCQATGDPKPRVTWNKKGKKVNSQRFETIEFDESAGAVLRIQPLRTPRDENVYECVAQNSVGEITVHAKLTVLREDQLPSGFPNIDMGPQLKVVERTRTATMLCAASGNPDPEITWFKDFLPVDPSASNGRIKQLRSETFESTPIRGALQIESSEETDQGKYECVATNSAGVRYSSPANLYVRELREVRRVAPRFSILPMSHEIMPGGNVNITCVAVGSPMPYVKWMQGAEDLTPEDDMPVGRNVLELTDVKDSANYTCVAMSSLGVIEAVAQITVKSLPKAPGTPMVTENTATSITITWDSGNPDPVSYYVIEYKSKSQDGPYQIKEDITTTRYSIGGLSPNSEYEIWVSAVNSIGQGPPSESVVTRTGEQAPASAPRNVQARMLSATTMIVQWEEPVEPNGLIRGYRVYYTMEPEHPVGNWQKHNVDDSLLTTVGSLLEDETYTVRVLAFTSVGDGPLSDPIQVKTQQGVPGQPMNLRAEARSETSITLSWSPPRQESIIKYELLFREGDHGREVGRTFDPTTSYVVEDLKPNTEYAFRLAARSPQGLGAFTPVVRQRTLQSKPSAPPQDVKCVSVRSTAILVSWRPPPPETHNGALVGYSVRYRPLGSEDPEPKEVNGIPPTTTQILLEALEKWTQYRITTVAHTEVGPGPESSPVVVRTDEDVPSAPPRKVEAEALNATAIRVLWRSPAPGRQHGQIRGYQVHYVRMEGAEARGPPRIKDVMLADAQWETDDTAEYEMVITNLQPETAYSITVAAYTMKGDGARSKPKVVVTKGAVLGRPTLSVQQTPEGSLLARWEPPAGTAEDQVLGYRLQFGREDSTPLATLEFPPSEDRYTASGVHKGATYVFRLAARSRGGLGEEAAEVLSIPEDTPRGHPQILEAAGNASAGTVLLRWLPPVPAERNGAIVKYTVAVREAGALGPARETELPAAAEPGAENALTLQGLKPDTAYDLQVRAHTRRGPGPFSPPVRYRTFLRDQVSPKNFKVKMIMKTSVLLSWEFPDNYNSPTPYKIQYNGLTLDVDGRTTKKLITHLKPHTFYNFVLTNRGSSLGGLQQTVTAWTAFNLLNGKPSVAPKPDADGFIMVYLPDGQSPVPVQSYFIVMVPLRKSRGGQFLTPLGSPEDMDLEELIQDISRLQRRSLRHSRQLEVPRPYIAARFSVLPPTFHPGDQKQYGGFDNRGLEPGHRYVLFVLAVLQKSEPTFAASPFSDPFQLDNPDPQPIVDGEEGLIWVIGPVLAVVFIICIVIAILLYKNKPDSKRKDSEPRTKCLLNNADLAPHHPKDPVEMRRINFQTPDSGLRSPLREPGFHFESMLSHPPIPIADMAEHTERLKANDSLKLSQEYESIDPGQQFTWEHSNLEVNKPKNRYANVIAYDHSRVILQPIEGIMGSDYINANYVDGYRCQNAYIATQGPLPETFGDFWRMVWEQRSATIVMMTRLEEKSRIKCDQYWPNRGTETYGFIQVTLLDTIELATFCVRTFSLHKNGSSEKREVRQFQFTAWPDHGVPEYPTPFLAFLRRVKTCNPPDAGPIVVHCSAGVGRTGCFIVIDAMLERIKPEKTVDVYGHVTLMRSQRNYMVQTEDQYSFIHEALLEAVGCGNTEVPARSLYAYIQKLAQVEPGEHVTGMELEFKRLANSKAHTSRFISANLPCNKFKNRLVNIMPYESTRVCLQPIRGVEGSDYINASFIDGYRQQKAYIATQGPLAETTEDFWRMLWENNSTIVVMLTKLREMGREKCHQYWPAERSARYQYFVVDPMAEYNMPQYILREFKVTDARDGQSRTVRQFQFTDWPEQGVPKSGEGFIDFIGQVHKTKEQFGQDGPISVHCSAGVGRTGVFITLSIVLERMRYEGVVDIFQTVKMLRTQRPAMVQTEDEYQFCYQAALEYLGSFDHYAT

## CC1(C)Cc2c(O)c(C=O)c3c(c2C1)C(=O)OC(O)C3 (stereo not drawn) [Illudalic acid]
PTPα catalytic activity
  IC50: ~1000 nM

## C=CC(=O)Nc1cc(OC)c(OCCCCCC)cc1C(=O)O [HJ-02, 2-acrylamido-5-(hexyloxy)-4-methoxybenzoic Acid]
Sympathetic neurons
  concentration fully restoring sympathetic axon outgrowth over CSPGs: 30 nM
Cardiac vasculature
  density of vasculature (α-SMA, CD31): no difference in the density of vasculature between any treatment groups
[1]
  D1 phosphatase activity (pNPP): did not inhibit D1 phosphatase activity
Infarct size
  infarct size: significantly smaller infarcts compared to vehicle hearts
[2]
  concentration rescuing ERK1/2 phosphorylation: 10 nM
Sympathetic axons
  defasiculation of axon bundles growing over CSPGs: stimulated the defasiculation of axon bundles
  rate of axon outgrowth over CSPGs: enhanced the rate of axon outgrowth
[3]
  inhibition of other protein phosphatases in the screen: neither HJ-01 nor HJ-02 inhibited any of the protein phosphatases
[4]
  beta adrenergic receptor supersensitivity: prevented beta adrenergic receptor supersensitivity
[5]
  nerve density within the infarct: restored nerve density within the infarct to the density in sham and uninjured peri-infarct myocardium
ISO-stimulated PVCs
  ISO-stimulated arrhythmias (PVCs): had arrhythmias similar to sham mice

## [Na+].[Na+].[Na+].[O]=[V]([O-])([O-])[O-] [orthovanadate, sodium-orthovanadate, reference compound]
[1]
  D1 phosphatase activity (pNPP): negligible phosphatase activity

## chondroitinase ABC [reference compound]
Sympathetic axons
  defasiculation of axon bundles growing over CSPGs: stimulated the defasiculation of axon bundles
  rate of axon outgrowth over CSPGs: enhanced the rate of axon outgrowth

## CCC(=O)Nc1cc(OC)c(OCC2CCCCC2)cc1C(=O)O [HJ-03, 5-(cyclohexylmethoxy)-4-methoxy-2-propionamidobenzoic Acid]
TrkA-PTPσ interaction
  amount of PTPRS co-immunoprecipitated with TrkA-RFP: had no effect

## C=CC(=O)Nc1cc(OC)c(OCC2CCCCC2)cc1C(=O)O [HJ-01, 2-acrylamido-5-(cyclohexylmethoxy)-4-methoxybenzoic Acid]
Sympathetic neurons
  concentration fully restoring sympathetic axon outgrowth over CSPGs: 100 nM
Cardiac vasculature
  density of vasculature (α-SMA, CD31): no difference in the density of vasculature between any treatment groups
[1]; concluding statement, no concentration printed for HJ-01
  catalytic activity of recombinant PTPσ: do not inhibit the catalytic activity of recombinant PTPσ
Infarct size
  infarct size: significantly smaller infarcts compared to vehicle hearts
[2]
  concentration rescuing ERK1/2 phosphorylation: 100 nM
Sympathetic axons
  defasiculation of axon bundles growing over CSPGs: stimulated the defasiculation of axon bundles
  rate of axon outgrowth over CSPGs: enhanced the rate of axon outgrowth
[3]
  inhibition of other protein phosphatases in the screen: neither HJ-01 nor HJ-02 inhibited any of the protein phosphatases
[4]
  beta adrenergic receptor supersensitivity: prevented beta adrenergic receptor supersensitivity
[5]
  nerve density within the infarct: restored nerve density within the infarct to the density in sham and uninjured peri-infarct myocardium
ISO-stimulated PVCs
  ISO-stimulated arrhythmias (PVCs): had arrhythmias similar to sham mice
